{"source": "patent US20130288982A1", "about": "“THERAPEUTIC AGENT FOR PULMONARY SMALL CELL CARCINOMA” (TOKYO WOMEN'S MEDICAL UNIVERSITY, priority 2009, published 2013)", "key": {"[1]": {"system": "human pulmonary small cell carcinoma cell line RERF-LC-MA", "assay": "Inhibition of proliferation of cancer cells (XTT based Cell Proliferation Kit), RERF-LC-MA", "conditions": "peptide added at 5 μg/mL or 10 μg/m, incubation at 37° C. for three days; p=0.031 vs scrambled peptide control", "description": "(§1) The human pulmonary small cell carcinoma cell line RERF-LC-MA, the human prostate cancer cell line PC-3, and the human breast cancer cell line MCF-7 were used as the cancer cells.\n(§2) A 96-well plate was inoculated with the above-mentioned cells at a density of 0.6×10^3 to 1.0×10^3 cells per well, and then cultured at 37° C. for three days. Then, cell proliferation was quantified using the Cell Proliferation Kit (XTT based).\n(§3) Next, the above-mentioned peptides were separately added to the culture system at concentrations of 0 μg/mL, 1 μg/mL, 5 μg/mL and 10 μg/m, followed by incubation at 37° C. for three days. After completion of the incubation, the number of cancer cells was counted."}, "[2]": {"system": "human prostate cancer cell line PC-3", "assay": "Inhibition of proliferation of cancer cells (XTT based Cell Proliferation Kit), PC-3", "conditions": "peptide added, incubation at 37° C. for three days; data not shown", "description": "as §1, §2, §3"}, "[3]": {"system": "human breast cancer cell line MCF-7", "assay": "Inhibition of proliferation of cancer cells (XTT based Cell Proliferation Kit), MCF-7", "conditions": "peptide added, incubation at 37° C. for three days; data not shown", "description": "as §1, §2, §3"}, "[4]": {"system": "mRNA of the VEGFR1, RECK, MMP9 and MMP14 in the osteoclasts", "assay": "mRNA expression of molecule groups in osteoclasts by qPCR", "type": "cell-based", "conditions": "peptide A vs scrambled peptide, 24 hours after addition", "description": "(§4) The peptides were added to the cancer cells and osteoclasts to determine a change in the expression of each molecular group resulting from the interaction between the peptide and the cancer cells or between the peptide and osteoclasts by confirming the expression of mRNA using quantitative polymerase chain reaction (qPCR).\nThe following molecule groups were used which are expressed in the cancer cells and/or osteoclasts as reported in Yoko Morioka et al.: “The roles of MMPs and RECK in cancer progression”, Cell Technology. Vol. 28, No. 7, 659-679 (2009).\n(§5) The cancer cells and the osteoclasts were separately inoculated into a 6-well plate at a density of 1×10^5 to 2×10^5 cells per well. Twenty-four hours later, the medium was changed to D-MEM (1% FCS, 2 mM L-glu). Another 24 hours later, the medium was changed, and at the same time the peptide A or the control was added. After 24 hours, the cells were collected and extraction of the RNA was conducted."}, "[5]": {"system": "GAPDH mRNA in RERF-LC-MA cell", "assay": "GAPDH mRNA expression in cancer cells by qPCR", "type": "cell-based, human", "conditions": "RERF-LC-MA cell (only in this cancer cell line), 24 hours after addition", "description": "as §4\nAs the cancer cells, those as shown in Example 1 were used.\nas §5"}}, "note": "No end group written: not given here.", "data": [{"sequence": "GQNGSTPDGSTHFPSWEMAANEPLKTHRE [peptide A, 29-mer peptide derived from the TCTA protein, containing extracellular domain GQN]", "values": [{"measurement": "proliferation of the RERF-LC-MA cells (reduced to)", "setting": "[1]", "result": "about 85%"}, {"measurement": "inhibitory effect on proliferation of the PC-3 cells", "setting": "[2]", "result": "almost no inhibitory effect"}, {"measurement": "inhibitory effect on proliferation of the MCF-7 cells", "setting": "[3]", "result": "almost no inhibitory effect"}, {"measurement": "expression of mRNA of MMP9 in the osteoclasts", "setting": "[4]", "result": "no significant difference"}, {"measurement": "expression of mRNA of MMP14 in the osteoclasts", "setting": "[4]", "result": "no significant difference"}, {"measurement": "expression of mRNA of RECK in the osteoclasts", "setting": "[4]", "result": "no significant difference"}, {"measurement": "expression of mRNA of VEGFR1 in the osteoclasts", "setting": "[4]", "result": "no significant difference"}, {"measurement": "GAPDH mRNA expression", "setting": "[5]", "result": "reduced"}]}]}
